Measurements from patent publication USRE47689E1, “Compounds for treating spinal muscular atrophy” (PTC Therapeutics, Inc., priority 2011, dated 2019).

Assays:
[1] = system: SMN2 minigene (full length SMN2 minigene mRNA containing SMN2 exon 7); test: SMN2 minigene mRNA splicing RT-qPCR assay in cultured cells; assay type: cell-based, human; settings: Homo sapiens, HEK293-H; HEK293H cells stably transfected with SMN2-A minigene; 24 hours; 7-point concentration curve; 1.5-fold relative to vehicle-treated cells; read-out: EC1.5x for production of full length SMN2 mRNA
How it was run: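 Full-length SMN2 minigene mRNA (exon 7 included), minigene-specific and not endogenous SMN, quantified by RT-qPCR multiplexed with GAPDH in stably transfected HEK293H cells after 24 h compound exposure at 37° C. Abundance from efficiency-corrected Ct, normalized to GAPDH and vehicle; EC1.5x reported as star bins.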

Smn protein = Smn protein assay in cultured cells (SMN HTRF); assay type: cell-based, human; settings: 48 hours; for maximum fold (Fold) increase of Smn protein: SMA patient fibroblast cells, 7-point concentration data, fold increase relative to vehicle control (SMN HTRF); for EC1.5x (concentration giving 1.5-fold Smn protein increase): SMA Type 1 patient fibroblast cells (GM03813), 7-point concentration curve, SMN HTRF, concentration producing 1.5 times Smn protein vs DMSO vehicle control, read-out: EC1.5x for Smn protein expression
How it was run: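 Smn in SMA fibroblast lysates, measured by anti-SMN HTRF after 48 h compound exposure; EC1.5x from fold change over vehicle.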

Structure (SMILES)	EC (1.5-fold) [1] [µM]	maximum fold (Fold) increase of Smn protein (Smn protein)	melting point [°C]	EC1.5x (concentration giving 1.5-fold Smn protein increase) (Smn protein) [nM]
Cc1cn2cc(-c3cc4ccc(CCCNCc5ccsc5)cc4oc3=O)nc2c(C)n1 [Compound 934, 3-(6,8-dimethylimidazo[1,2-a]pyrazin-2-yl)-7-{3-[(thiophen-3-ylmethyl)amino]propyl}-2H-chromen-2-one]	< 0.1	** (fold increase between >1.2 and ≤1.35)	149 to 152	
CN1CCN(c2ccc3cc(-c4cn5ccncc5n4)c(=O)oc3c2)CC1 [Compound 457, 3-(imidazo[1,2-a]pyrazin-2-yl)-7-(4-methylpiperazin-1-yl)-2H-chromen-2-one]	0.1 to 0.3	** (fold increase between >1.2 and ≤1.35)	246 to 249	
O=c1oc2cc(N3CCNCC3)ccc2cc1-c1cn2ccsc2n1 [Compound 88, 3-(imidazo[2,1-b][1,3]thiazol-6-yl)-7-(piperazin-1-yl)-2H-chromen-2-one]	< 0.1	*** (fold increase between >1.35 and ≤1.5)	275 to 280	1000 to 3000
Cc1csc2nc(-c3cc4ccc(N5CCN(C)CC5)cc4oc3=O)cn12 [Compound 185, 3-(3-methylimidazo[2,1-b][1,3]thiazol-6-yl)-7-(4-methylpiperazin-1-yl)-2H-chromen-2-one]	3 to 30	* (maximum fold increase of ≤1.2)	213 to 216	
Cc1cn2cc(-c3cc4ccc(N5CCCN(C)CC5)cc4oc3=O)nc2c(C)n1 [Compound 519, 3-(6,8-dimethylimidazo[1,2-a]pyrazin-2-yl)-7-(4-methyl-1,4-diazepan-1-yl)-2H-chromen-2-one]	< 0.1	***** (fold increase >1.65)	253 to 255	< 300
Cc1ccn2cc(-c3cc4ccc(N5CCN[C@@H](C)C5)cc4oc3=O)nc2c1 [Compound 213, 3-(7-methylimidazo[1,2-a]pyridin-2-yl)-7-[(3S)-3-methylpiperazin-1-yl]-2H-chromen-2-one]	0.1 to 0.3	*** (fold increase between >1.35 and ≤1.5)	234 to 244	
COc1ccc(-c2cc3c(F)cc(N4C[C@@H]5C[C@H]4CN5)cc3oc2=O)cc1OC [Compound 446, 7-[(1S,4S)-2,5-diazabicyclo[2.2.1]hept-2-yl]-3-(3,4-dimethoxyphenyl)-5-fluoro-2H-chromen-2-one]	3 to 30	* (maximum fold increase of ≤1.2)	239 to 241	
Cc1nc(-c2cc3ccc(N4CCCN(C)CC4)cc3oc2=O)cn1-c1ccccn1 [Compound 453, 7-(4-methyl-1,4-diazepan-1-yl)-3-[2-methyl-1-(pyridin-2-yl)-1H-imidazol-4-yl]-2H-chromen-2-one]	3 to 30	* (maximum fold increase of ≤1.2)	192 to 196	
CNCCCc1ccc2cc(-c3cn4cc(C)nc(C)c4n3)c(=O)oc2c1 [Compound 912, 3-(6,8-dimethylimidazo[1,2-a]pyrazin-2-yl)-7-[3-(methylamino)propyl]-2H-chromen-2-one]	< 0.1	**** (fold increase between >1.5 and ≤1.65)	197 to 201	< 300
Cc1ccc2nc(-c3cc4ccc(N5CCNC(C)(C)C5)cc4oc3=O)cn2c1 [Compound 222, 7-(3,3-dimethylpiperazin-1-yl)-3-(6-methylimidazo[1,2-a]pyridin-2-yl)-2H-chromen-2-one]	1 to 3	* (maximum fold increase of ≤1.2)	177 to 180	
O=c1oc2cc(N3CCCNCC3)ccc2cc1-c1nc(C(F)(F)F)cs1 [Compound 237, 7-(1,4-diazepan-1-yl)-3-[4-(trifluoromethyl)-1,3-thiazol-2-yl]-2H-chromen-2-one]	1 to 3	* (maximum fold increase of ≤1.2)	200	
Cc1cc(F)c2nc(-c3cc4ccc(N5CCN(C)[C@@H](C)C5)cc4oc3=O)cn2c1 [Compound 471, 7-[(3S)-3,4-dimethylpiperazin-1-yl]-3-(8-fluoro-6-methylimidazo[1,2-a]pyridin-2-yl)-2H-chromen-2-one]	0.1 to 0.3	**** (fold increase between >1.5 and ≤1.65)	270 to 277	300 to 1000
CCN(C)CCOc1ccc2cc(-c3cn4cc(C)nc(C)c4n3)c(=O)oc2c1 [Compound 937, 3-(6,8-dimethylimidazo[1,2-a]pyrazin-2-yl)-7-{2-[ethyl(methyl)amino]ethoxy}-2H-chromen-2-one]	< 0.1	***** (fold increase >1.65)	190 to 196	< 300
Cc1cn2cc(-c3cc4ccc(N5CCN(C6CC6)CC5)cc4oc3=O)nc2c(C)n1 [Compound 762, 7-(4-cyclopropylpiperazin-1-yl)-3-(6,8-dimethylimidazo[1,2-a]pyrazin-2-yl)-2H-chromen-2-one]	< 0.1	**** (fold increase between >1.5 and ≤1.65)	263 to 266	300 to 1000
O=c1oc2cc(N3CCNCC3)ccc2cc1-c1ccc2[nH]ncc2c1 [Compound 91, 3-(1H-indazol-5-yl)-7-(piperazin-1-yl)-2H-chromen-2-one]	0.3 to 1	** (fold increase between >1.2 and ≤1.35)	250 to 252	
O=c1oc2cc(N3CCCNCC3)ccc2cc1-c1cn2cccc(F)c2n1 [Compound 357, 7-(1,4-diazepan-1-yl)-3-(8-fluoroimidazo[1,2-a]pyridin-2-yl)-2H-chromen-2-one]	0.1 to 0.3	*** (fold increase between >1.35 and ≤1.5)	210 to 213	
Cc1cn2cc(-c3cc4ccc(N5C[C@H]6CCCN(CCO)[C@H]6C5)cc4oc3=O)nc2c(C)n1 [Compound 785, 3-(6,8-dimethylimidazo[1,2-a]pyrazin-2-yl)-7-[(4aR,7aR)-1-(2-hydroxyethyl)octahydro-6H-pyrrolo[3,4-b]pyridin-6-yl]-2H-chromen-2-one]	< 0.1	**** (fold increase between >1.5 and ≤1.65)	207 to 217	1000 to 3000
C[C@@H]1CN[C@@H](C)CN1c1ccc2cc(-c3cn4cc(Cl)ccc4n3)c(=O)oc2c1 [Compound 93, 3-(6-chloroimidazo[1,2-a]pyridin-2-yl)-7-[(2R,5S)-2,5-dimethylpiperazin-1-yl]-2H-chromen-2-one]	1 to 3	** (fold increase between >1.2 and ≤1.35)	245 to 247	
